The record followed here is US5198445A, “Composition and use of substituted 3-thio-2-propynenitriles as industrial antimicrobials” (The Dow Chemical Company, priority 1992, dated 1993).

The nature of series [1]: Degradation of Z isomer to 3-methylthio-2-propynenitrile. It counts as physicochemical. An excerpt: It has also been discovered that the Z isomer of an appropriately-substituted 2-chloro-3-thio-2-propenenitrile precursor may degrade in situ to a like-substituted 3-thio-2-propynenitrile.
Another series relates to Bacteria Species. The series can be described thus: MIC test in bacteria species, comparison over the organisms of Table XIV. It counts as cell-based, bacteria listed in Table II. The note with it: pH 8.2. As to the method: The minimum inhibitory concentration (MIC) for the compounds listed in Table I is determined for 9 bacteria, using nutrient agar, and 7 yeast and fungi, using malt yeast agar. A one percent solution of the test compound is prepared in a mixture of acetone and water. Nutrient agar is prepared at pH 6.8, representing a neutral medium, and at pH 8.2, representing an alkaline medium. The nutrient agars are prepared by adding 23 g of nutrient agar to one-liter of deionized water. In addition, the alkaline medium is prepared by adjusting a 0.04M solution of N-[tris-(hydroxymethyl)methyl]-glycine buffered deionized water with concentrated sodium hydroxide to a pH of […]. Malt yeast agar is prepared by adding 3 g yeast extract and 45 g malt agar per liter of deionized water. The specific agar is dispensed in 30 ml aliquots into 25×200 mm test tubes, capped and autoclaved for 15 minutes at 115° C. The test tubes containing the agar are cooled in a water bath until the temperature of the agar is 48° C. […]
The inoculated petri plates are incubated at 30° C. for 48 hours and then read to determine if the test compound which is incorporated into the agar prevented growth of the respective bacteria. […]

Series [2] relates to Salmonella choleraesuis (Sc). Description: MIC in nutrient agar, Salmonella choleraesuis. It counts as cell-based, Salmonella choleraesuis ATCC 10708. The conditions noted are these: Salmonella enterica, CHOLERAESUIS
As to the method:
(§1) The minimum inhibitory concentration (MIC) for the compounds listed in Table I is determined for 9 bacteria, using nutrient agar, and 7 yeast and fungi, using malt yeast agar. A one percent solution of the test compound is prepared in a mixture of acetone and water. Nutrient agar is prepared at pH 6.8, representing a neutral medium, and at pH 8.2, representing an alkaline medium. The nutrient agars are prepared by adding 23 g of nutrient agar to one-liter of deionized water. In addition, the alkaline medium is prepared by adjusting a 0.04M solution of N-[tris-(hydroxymethyl)methyl]-glycine buffered deionized water with concentrated sodium hydroxide to a pH of […]. Malt yeast agar is prepared by adding 3 g yeast extract and 45 g malt agar per liter of deionized water. The specific agar is dispensed in 30 ml aliquots into 25×200 mm test tubes, capped and autoclaved for 15 minutes at 115° C. The test tubes containing the agar are cooled in a water bath until the temperature of the agar is 48° C. Then, an appropriate amount of the one percent solution of the test compound is added (except in the controls where no compound is added) to the respective test tubes so that the final concentrations are 500, 250, 100, 50, 25, 10, 5, 2.5, 1.0 and zero parts per million of the test compound in the agar, thus having a known concentration of test compound dispersed therein. The contents of the test tubes are then transferred to respective petri plates. After drying for 24 hours, the petri plates containing nutrient agar are inoculated with bacteria and those containing malt yeast agar are inoculated with yeast and fungi.
(§2) The inoculation with bacteria is accomplished by using the following procedure. Twenty-four hour-cultures of each of the bacteria are prepared by incubating the respective bacteria in tubes containing nutrient broth for 24 hours at 30° C. in a shaker. Dilutions of each of the 24 hour-cultures are made so that nine separate suspensions (one for each of the nine test bacteria) are made, each containing 10^8 colony forming units (CFU) per ml of suspension of a particular bacteria. Aliquots of 0.3 ml of each of the bacterial suspensions are used to fill the individual wells of Steer's Replicator. For each microbial suspension, 0.3 ml was used to fill three wells (i.e., three wells of 0.3 ml each) so that for the nine different bacteria, 27 wells are filled. The Steer's Replicator is then used to inoculate both the neutral and alkaline pH nutrient agar petri plates.
(§3) The inoculated petri plates are incubated at 30° C. for 48 hours and then read to determine if the test compound which is incorporated into the agar prevented growth of the respective bacteria.
(§4) Table II lists the bacteria, yeast and fungi used in the MIC test described above along with their respective American Type Culture Collection (ATCC) identification numbers.
(§5) The following MIC and MEC antimicrobial tests, whose results are shown in Tables XIII-XVII, are performed using the same methods as described hereinabove.

The test system of another series is Escherichia coli (Ec). The series can be described thus: MIC in nutrient agar, Escherichia coli. It counts as cell-based, Escherichia coli ATCC 11229. The conditions noted are these: Escherichia coli. As to the method:
as §1, §2, §3, §4, §5

Another series relates to Trichoderma viride (Tv). The series can be described thus: MIC in malt yeast agar, Trichoderma viride. Type of series: cell-based, Trichoderma viride ATCC 8678. The conditions noted are these: read-out: Minimum Inhibitory Concentration, Tv. As to the method: as §1
(§6) The inoculation with the yeast and fungi is accomplished as follows. Cultures of yeast and fungi are incubated for seven days on malt yeast agar at 30° C. These cultures are used to prepare suspensions by the following procedure. A suspension of each organism is prepared by adding 10 ml of sterile saline and 10 microliters of octylphenoxy polyethoxy ethanol (TRITON® X-100, a trademark of Rohm & Haas Company) to the agar slant of yeast or fungi. The sterile saline/octylphenoxy polyethoxy ethanol solution is then agitated with a sterile swab to suspend the microorganism grown on the slant. Each resulting suspension is diluted into sterile saline (1 part suspension: 9 parts sterile saline). Aliquots of these dilutions are placed in individual wells of Steer's Replicator and petri plates inoculated as previously described. The petri plates are incubated at 30° C. and read after 48 hours for yeast and 72 hours for fungi.
as §4, §5

Series [3] has as its system Aureobasidium pullulan (Ap). The series can be described thus: MIC in malt yeast agar, Aureobasidium pullulan. The conditions noted are these: read-out: Minimum Inhibitory Concentration, Ap. It counts as cell-based, Aureobasidium pullulan ATCC 16622. As to the method: as §1, §6, §4, §5
The test system of series [4] is Klebsiella pneumoniae (Kp). The series can be described thus: MIC in nutrient agar, Klebsiella pneumoniae. It counts as cell-based, Klebsiella pneumoniae ATCC 8308. As to the method:
as §1, §2, §3, §4, §5

Series [5] relates to Saccharomyces cerevisiae (Sc). The series can be described thus: MIC in malt yeast agar, Saccharomyces cerevisiae. It counts as cell-based, Saccharomyces cerevisiae ATCC 4105. The note with it: read-out: Minimum Inhibitory Concentration, Sc. As to the method:
as §1, §6, §4, §5

The subject of series [6] is Pseudomonas aeruginosa (PRD-10). The series can be described thus: MIC in nutrient agar, Pseudomonas aeruginosa PRD-10. It counts as cell-based, Pseudomonas aeruginosa ATCC 15442. The note with it: Pseudomonas aeruginosa. As to the method: as §1, §2, §3, §4, §5
The subject of series [7] is Enterobacter aerogenes (Ea). The series can be described thus: MIC in nutrient agar, Enterobacter aerogenes. The conditions noted are these: Klebsiella aerogenes. Type of series: cell-based, Enterobacter aerogenes ATCC 13048. As to the method:
as §1, §2, §3, §4, §5

The test system of series [8] is Penicillium chrysogenum (Pc). The series can be described thus: MIC in malt yeast agar, Penicillium chrysogenum. It counts as cell-based, Penicillium chrysogenum ATCC 9480. The conditions noted are these: read-out: Minimum Inhibitory Concentration, Pc. As to the method:
as §1, §6, §4, §5

For a further series, the system named is Proteus vulgaris (Pv). Description: MIC in nutrient agar, Proteus vulgaris. It counts as cell-based, Proteus vulgaris ATCC 881. As to the method: as §1, §2, §3, §4, §5
Series [9] has as its system Pseudomonas aeruginosa (Pa). The series can be described thus: MIC in nutrient agar, Pseudomonas aeruginosa. Type of series: cell-based, Pseudomonas aeruginosa ATCC 10145. As to the method:
as §1, §2, §3, §4, §5

A further series deals with Aspergillus niger (An). The series can be described thus: MIC in malt yeast agar, Aspergillus niger. It counts as cell-based, Aspergillus niger ATCC 16404. The conditions noted are these: read-out: Minimum Inhibitory Concentration, An. As to the method:
as §1, §6, §4, §5

The test system of another series is Candida albicans (Ca). Description: MIC in malt yeast agar, Candida albicans. The note with it: read-out: Minimum Inhibitory Concentration, Ca. It counts as cell-based, Candida albicans ATCC 10231. As to the method: as §1, §6, §4, §5
The subject of series [10] is Staphylococcus aureus (Sa). Description: MIC in nutrient agar, Staphylococcus aureus. It counts as cell-based, Staphylococcus aureus ATCC 6538. The note with it: Staphylococcus aureus. As to the method: as §1, §2, §3, §4, §5
The next series concerns Fusarium oxysporum (Fo). The series can be described thus: MIC in malt yeast agar, Fusarium oxysporum. It counts as cell-based, Fusarium oxysporum ATCC 48112. The note with it: read-out: Minimum Inhibitory Concentration, Fo. As to the method: as §1, §6, §4, §5
In a further series the test system is Bacillus subtilis (Bs). Description: MIC in nutrient agar, Bacillus subtilis. It counts as cell-based, Bacillus subtilis ATCC 8473. The note with it: Bacillus subtilis. As to the method: as §1, §2, §3, §4, §5
Series [11] is described as follows: Antimicrobial activity of decomposition product. Type of series: cell-based. An excerpt: It has also been discovered that the compounds of the present invention may degrade at a pH of 7 or above over an extended time period to compounds which are less antimicrobially active than the original compounds of the present invention.

≈ marks a conversion by molar mass, not a printed value. Like-named read-outs stand apart in the source and are kept apart here.

With `CS/C=C(\Cl)C#N` [Compound I, Z isomer of 2-chloro-3-(methylthio)-2-propenenitrile], the “half-life for the degradation of the Z isomer to 3-methylthio-2-propynenitrile” value in series [1] (pH 7) and in series [1] (pH 9) was “approximately two” throughout. Further, the “antimicrobial activity compared with 3-methylthio-2-propynenitrile (Compound A)” value in the series on Bacteria Species is “essentially equivalent”. In addition, the “antimicrobial activity relative to the E isomer (Compound H)” value in the series with Bacteria Species was 25-50 times greater. The MIC in [2] (pH 6.8, read-out: Minimum Inhibitory Concentration, Sc) was 50 µg/mL (≈ 374 µM); in series [2] (pH 8.2, read-out: Minimum Inhibitory Concentration, Sc), 10 µg/mL (≈ 74.8 µM); with Escherichia coli (Ec) (pH 6.8, read-out: Minimum Inhibitory Concentration, Ec), 50 µg/mL (≈ 374 µM); with Escherichia coli (Ec) (pH 8.2, read-out: Minimum Inhibitory Concentration, Ec) it was 10 µg/mL (≈ 74.8 µM); with Trichoderma viride (Tv), 50 µg/mL (≈ 374 µM); in [3] it was 50 µg/mL (≈ 374 µM). Also, the MIC in [4] (pH 6.8, read-out: Minimum Inhibitory Concentration, Kp) came to 50 µg/mL (≈ 374 µM); in [4] (pH 8.2, read-out: Minimum Inhibitory Concentration, Kp), 10 µg/mL (≈ 74.8 µM); in series [5] it was 100 µg/mL (≈ 748 µM); in series [6] (pH 6.8, read-out: Minimum Inhibitory Concentration, PRD), 50 µg/mL (≈ 374 µM); in series [6] (pH 8.2, read-out: Minimum Inhibitory Concentration, PRD), 10 µg/mL (≈ 74.8 µM); in series [7] (pH 6.8, read-out: Minimum Inhibitory Concentration, Ea), 50 µg/mL (≈ 374 µM). In addition, the MIC in series [7] (pH 8.2, read-out: Minimum Inhibitory Concentration, Ea) stood at 10 µg/mL (≈ 74.8 µM); in series [8], 50 µg/mL (≈ 374 µM); in the series with Proteus vulgaris (Pv) (pH 6.8, read-out: Minimum Inhibitory Concentration, Pv) it was 50 µg/mL (≈ 374 µM); with Proteus vulgaris (Pv) (pH 8.2, read-out: Minimum Inhibitory Concentration, Pv), 5 µg/mL (≈ 37.4 µM); in series [9] (pH 6.8, read-out: Minimum Inhibitory Concentration, Pa) it was 50 µg/mL (≈ 374 µM); in series [9] (pH 8.2, read-out: Minimum Inhibitory Concentration, Pa), 10 µg/mL (≈ 74.8 µM). For the same compound, the MIC came to 50 µg/mL (≈ 374 µM) in the series on Aspergillus niger (An); 100 µg/mL (≈ 748 µM) with Candida albicans (Ca); 50 µg/mL (≈ 374 µM) in series [10] (pH 6.8, read-out: Minimum Inhibitory Concentration, Sa); 10 µg/mL (≈ 74.8 µM) in series [10] (pH 8.2, read-out: Minimum Inhibitory Concentration, Sa); 100 µg/mL (≈ 748 µM) in the series with Fusarium oxysporum (Fo); 50 µg/mL (≈ 374 µM) in the series with Bacillus subtilis (Bs) (pH 6.8, read-out: Minimum Inhibitory Concentration, Bs). In the series on Bacillus subtilis (Bs) (pH 8.2, read-out: Minimum Inhibitory Concentration, Bs), the MIC was 10 µg/mL (≈ 74.8 µM).
Regarding `CSC(=CC#N)SC` [3,3-bis(methylthio)propenenitrile], the “antimicrobial activity of decomposition product” value in series [11] was “virtually inactive as an antimicrobial”.
